Measured values taken from patent publication US7772252B2, “Heterocyclic substituted carbonyl derivatives and their use as dopamine D3 receptor ligands” (Aventis Pharmaceuticals Inc., priority 2001, dated 2010).

biological target: T1, cloned human dopamine D3 receptors (Homo sapiens, UniProt P35462); assay: [N-Methyl-3H]Spiroperidol binding to cloned human dopamine D3 receptors; conditions: Table 2; D3 receptor binding; read-out: d3Ki
T1 construct: expressed in transfected cells; membrane homogenate
How it was run: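 Radioligand displacement with [N-methyl-3H]spiroperidol was run on membranes from a high-expressing CHO clone carrying human D3. Membranes were prepared in 10% DMSO and stored at −80° C.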

T1 sequence (P35462 whole entry): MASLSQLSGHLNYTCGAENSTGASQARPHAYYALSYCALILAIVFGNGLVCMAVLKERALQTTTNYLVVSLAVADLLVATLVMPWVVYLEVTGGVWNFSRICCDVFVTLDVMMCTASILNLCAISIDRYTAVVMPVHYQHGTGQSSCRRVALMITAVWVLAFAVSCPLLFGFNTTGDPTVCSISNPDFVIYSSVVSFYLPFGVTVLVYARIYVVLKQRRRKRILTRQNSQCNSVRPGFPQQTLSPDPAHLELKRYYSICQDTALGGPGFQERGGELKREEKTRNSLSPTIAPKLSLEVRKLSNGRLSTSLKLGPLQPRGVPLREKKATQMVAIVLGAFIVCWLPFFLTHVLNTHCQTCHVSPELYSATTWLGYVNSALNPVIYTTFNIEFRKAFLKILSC

Row | Ki | SMILES
1 | 7.29 nM | O=C(CCCN1CCN(c2csc3cc(C(F)(F)F)ccc23)CC1)N1CCC(O)CC1 [compound 826812]
2 | 5.16 nM | CC1CCCCN1C(=O)CCCN1CCN(c2csc3cc(C(F)(F)F)ccc23)CC1 (stereo not drawn) [compound 826813]
3 | 10.3 nM | CC1CCN(C(=O)CCCN2CCN(c3csc4cc(C(F)(F)F)ccc34)CC2)CC1 [compound 826814]
4 | 31.7 nM | CC1CCCN(C(=O)CCCN2CCN(c3csc4cc(C(F)(F)F)ccc34)CC2)C1 (stereo not drawn) [compound 826815]

same assay, conditions: read-out: d3Ki

Row | Ki | SMILES
5 | 17.4 nM | CN(C(=O)CCCN1CCN(c2csc3cc(C(F)(F)F)ccc23)CC1)C1CCCCC1 [compound 826808]
6 | 29.3 nM | CC1CC(C)CN(C(=O)CCCN2CCN(c3csc4cc(C(F)(F)F)ccc34)CC2)C1 (stereo not drawn) [compound 826818]
7 | 11.6 nM | O=C(CCCN1CCN(c2csc3cc(C(F)(F)F)ccc23)CC1)N1CCCC1 [compound 826819]
8 | 52.8 nM | O=C(CCCN1CCN(c2csc3cc(C(F)(F)F)ccc23)CC1)NC1CCCC1 [compound 826820]
9 | 70.1 nM | O=C(CCCN1CCN(c2csc3cc(C(F)(F)F)ccc23)CC1)NC1CCCCC1 [compound 826821]
10 | 2.79 nM | CC1CCCN1C(=O)CCCN1CCN(c2csc3cc(C(F)(F)F)ccc23)CC1 (stereo not drawn) [compound 826822]
11 | 19 nM | CN(C)C1CCN(C(=O)CCCN2CCN(c3csc4cc(C(F)(F)F)ccc34)CC2)C1 (stereo not drawn) [compound 826823]
12 | 0.128 nM | CC1CCCCN1C(=O)CCCN1CCN(c2csc3cc(F)ccc23)CC1 (stereo not drawn) [compound 826853]
13 | 0.951 nM | CC1CCCN1C(=O)CCCN1CCN(c2csc3cc(F)ccc23)CC1 (stereo not drawn) [compound 826862]

Further lines, the compound ahead of its results:

Row | SMILES | Ki
14 | CC1CCCC(NC(=O)CCCN2CCN(c3csc4cc(C(F)(F)F)ccc34)CC2)C1 (racemic) [compound 826807] | 43 nM
15 | O=C(CCCN1CCN(c2csc3cc(F)ccc23)CC1)NC1CCCC1 (racemic) [compound 826860] | 3.48 nM
16 | O=C(CCCN1CCN(c2csc3cc(C(F)(F)F)ccc23)CC1)N(CCO)C1CCCCC1 [compound 826810] | 86.7 nM
17 | CCOC(=O)C1CCN(C(=O)CCCN2CCN(c3csc4cc(C(F)(F)F)ccc34)CC2)CC1 [compound 826811] | 40.4 nM
18 | O=C(CCCN1CCN(c2csc3cc(C(F)(F)F)ccc23)CC1)N1CCC(N2CCCC2)CC1 [compound 826816] | 26.3 nM
19 | C[C@H]1CC[C@H](NC(=O)CCCN2CCN(c3csc4cc(F)ccc34)CC2)CC1 [compound 826844] | 0.591 nM
20 | CCOC(=O)[C@H]1CC[C@H](NC(=O)CCCN2CCN(c3csc4cc(F)ccc34)CC2)CC1 [compound 826845] | 4.42 nM
21 | CC[C@H]1CC[C@H](NC(=O)CCCN2CCN(c3csc4cc(F)ccc34)CC2)CC1 [compound 826846] | 17.6 nM
22 | CC1CCCC(NC(=O)CCCN2CCN(c3csc4cc(F)ccc34)CC2)C1 (stereo not drawn) [compound 826847] | 1.01 nM
23 | CN(C(=O)CCCN1CCN(c2csc3cc(F)ccc23)CC1)C1CCCCC1 [compound 826848] | 4.35 nM
24 | CCN(C(=O)CCCN1CCN(c2csc3cc(F)ccc23)CC1)C1CCCCC1 [compound 826849] | 54.2 nM
25 | O=C(CCCN1CCN(c2csc3cc(F)ccc23)CC1)N(CCO)C1CCCCC1 [compound 826850] | 18.8 nM
26 | CCOC(=O)C1CCN(C(=O)CCCN2CCN(c3csc4cc(F)ccc34)CC2)CC1 [compound 826851] | 2.77 nM
27 | O=C(CCCN1CCN(c2csc3cc(F)ccc23)CC1)N1CCC(O)CC1 [compound 826852] | 3.54 nM
28 | CC1CCN(C(=O)CCCN2CCN(c3csc4cc(F)ccc34)CC2)CC1 [compound 826854] | 0.116 nM
29 | CC1CCCN(C(=O)CCCN2CCN(c3csc4cc(F)ccc34)CC2)C1 (stereo not drawn) [compound 826855] | 0.58 nM
30 | O=C(CCCN1CCN(c2csc3cc(F)ccc23)CC1)N1CCC(N2CCCC2)CC1 [compound 826856] | 1.8 nM
31 | CC1CC(C)CN(C(=O)CCCN2CCN(c3csc4cc(F)ccc34)CC2)C1 (stereo not drawn) [compound 826858] | 3.71 nM
32 | O=C(CCCN1CCN(c2csc3cc(F)ccc23)CC1)N1CCCC1 [compound 826859] | 3.53 nM
33 | O=C(CCCN1CCN(c2csc3cc(F)ccc23)CC1)NC1CCCCC1 [compound 826861] | 2.89 nM
